From patent US7521451B2, “Isoindoline derivative” (Maruishi Pharmaceutical Co., Ltd., priority 2002, dated 2009)
Where a name gives a salt, the structure may show the parent alone.

Tests used:
mice [1] = conditions: comparison anesthetics, disclosed in Japanese Patent Application Laid Open No. 50-154410; cited from earlier work
mice [2] = conditions: comparison anesthetics, disclosed in Japanese Patent Application Laid Open No. 50-154410, cited from earlier work; for T. I.(mouse): LD50/HD50

| Structure (SMILES) | melting point | HD50 (mice [1]) | T. I.(mouse) (mice [2]) | LD50 (mice [2]) |
| --- | --- | --- | --- | --- |
| CCOC(=O)CC1c2cc(C)c(C)cc2C(=S)N1c1cccnc1 (centres unmarked) | 158 to 158.5 °C |  |  |  |
| Cc1cc2c(cc1C)C(C(=O)O)N(c1cccc(F)c1)C2=O (centres unmarked) (as salt: hydrochloride) | 152 to 157.5 °C |  |  |  |
| Cc1cc2c(cc1C)C(OCC(=O)O)N(c1cccc(F)c1)C2=O (centres unmarked) (as salt: hydrochloride) | 145 to 146 °C |  |  |  |
| Cc1cc2c(cc1C)C(OCC(=O)N1CCN(C)CC1)N(c1cccc(F)c1)C2=O (centres unmarked) (as salt: hydrochloride) | 138 to 144.5 °C |  |  |  |
| CCCOC(=O)CC1c2cc(C)c(C)cc2C(=O)N1c1cccnc1 (centres unmarked) (as salt: hydrochloride) | 201.5 to 208.5 °C |  |  |  |
| CC(C)c1cccc(C(C)C)c1O [Propofol, 2,6-diisopropylphenol] |  | 13.5 mg/kg | 4.14 | 56 mg/kg |
| CCCC(C)C1(CC)C(=O)NC(=S)NC1=O (centres unmarked) [Thiopental Sodium, thiopental sodium] |  | 23.5 mg/kg | 4.26 | 100 mg/kg |
